In patent publication US4238491A (priority 1977, dated 1980):
Structures can show the parent of a compound that is named as a salt. Where two headings read alike, the source gives them in different places.

Assays:
[1] = system: blood pressure of SHR; experiment: Antihypertensive effect by single administration, SHR, direct cannulation; format: in vivo, rat (spontaneously hypertensive rats; settings: for Rate of Effects (relative to MR): from DB20; for ED (20% blood pressure decrease): Rattus norvegicus, read-out: DB20 (20% blood pressure descending dose)
Protocol: The effect was examined through both direct and modified tail-cuff methods using male SHRs aged 25 to 30 weeks and weighing about 300 g.
In the direct cannulation method, polyethylene cannules were inserted in femoral arteries of the conscious unanesthesized SHRs under back-fixation,and MR solution was administered in an amount of 0.1 mg/100 g of weight for venous injection, and 1 ml/100 g of weight for oral administration. Changes in the blood pressure over 6 hours were measured with a multi-purpose polygraph RM-85 made by NIHON KODEN Co., Ltd. MR was dissolved in 0.9% NaCl aqueous solution with 1 N-HCl, and the solution was neutralized for use.

[2] = system: hypertension; settings: cited from earlier work; for antihypertensive effect / side effects: remedies for hypertension
[3] = converted from FIG. 15 data to 20 mg/kg basis
Protocol: Blood was drawn from branchial vein of dogs, vein of ear of rabbits and carotic artery of rats after slaughter. Urine was collected with urine bladder catheter for rabbits and metabolic cages for rats. Gathering bile was performed with biliary duct cannulation without anesthesia.

[4] = in vivo; format: in vivo, rat (SD (SPF)); settings: rat, in vivo; oral sub-acute, rats; read-out: ineffective dose
Protocol: All the rats were observed daily and general symptoms noted. Weight was measured daily, average food-intake once every three days, and average water-intake once every two days.

[5] = system: rats; settings: in connection with RCN; cited from earlier work

COc1cc2[nH]c3c(c2cc1OC)CCN1C[C@H]2[C@H](C)OC=C(C(=O)OCCN(C)C)[C@H]2C[C@H]31.Cl.Cl [Dimethylaminoethyl reserpilinate dihydrochloride]
DB20 (20% blood pressure descending dose) ([1]; I.V.): 415.7 mg/kg | Rate of Effects (relative to MR) ([1]; I.V.): 0.01 | DB20 (20% blood pressure descending dose) ([1]; P.O.): 625.2 mg/kg | Rate of Effects (relative to MR) ([1]; P.O.): 0.02

COC(=O)[C@H]1[C@H]2C[C@@H]3c4[nH]c5cc(OC)ccc5c4CCN3C[C@H]2C[C@@H](OC(=O)c2cc(OC)c(OC)c(OC)c2)[C@@H]1OC [RSP, Reserpine]
antihypertensive effect [2]: prolonged antihypertensive effect | side effects [2]: uneasiness due to central nervous system depression, depressed state and loss of vitality | Rate of Effects (relative to MR) ([1]; I.V.): 17.7 | Rate of Effects (relative to MR) ([1]; P.O.): 3.11 | ED (20% blood pressure decrease) ([1]; iv): 0.2 mg/kg | ED (20% blood pressure decrease) ([1]; po): 3.8 mg/kg

NS(=O)(=O)c1cc2c(cc1Cl)NC(C(Cl)Cl)NS2(=O)=O (stereo not shown) [Trichlormethiazide]
Rate of Effects (relative to MR) ([1]; I.V.): 0.05 | Rate of Effects (relative to MR) ([1]; P.O.): 0.07 | ED (20% blood pressure decrease) ([1]; iv, I.V.): 79.8 mg/kg | ED (20% blood pressure decrease) ([1]; po, P.O.): 150 mg/kg

COC(=O)[C@H]1[C@H]2C[C@@H]3c4[nH]c5cc(OC)ccc5c4CCN3C[C@H]2C[C@@H](OC(=O)/C=C/c2cc(OC)c(OC)c(OC)c2)[C@@H]1OC [RCN, Rescinnamin]
Area under the Curve of MR Content in Serum [3]: 20.2 | NOAEL [4]: 6 mg/kg | pathological changes in adrenal and liver [5]: not reported | antihypertensive effect [2]: prolonged antihypertensive effect | side effects [2]: uneasiness due to central nervous system depression, depressed state and loss of vitality | pathological change of stomach mucous ([2]; when RCN is used): often occurs | ED (20% blood pressure decrease) ([1]; iv): 1.3 mg/kg | ED (20% blood pressure decrease) ([1]; po): 9.7 mg/kg

C[C@](N)(Cc1ccc(O)c(O)c1)C(=O)O [L-alpha-methyl-dopa]
Rate of Effects (relative to MR) ([1]; I.V.): 0.01 | Rate of Effects (relative to MR) ([1]; P.O.): 0.01 | ED (20% blood pressure decrease) ([1]; iv, I.V.): 303 mg/kg | ED (20% blood pressure decrease) ([1]; po, P.O.): 1740 mg/kg

C[N+](C)(C)CCCCCC[N+](C)(C)C [Hexamethonium chloride]
Rate of Effects (relative to MR) ([1]; I.V.): 0.08 | Rate of Effects (relative to MR) ([1]; P.O.): 0.04 | ED (20% blood pressure decrease) ([1]; iv): 39.7 mg/kg | ED (20% blood pressure decrease) ([1]; po): 320 mg/kg

NNc1nncc2ccccc12 [Hydralazine hydrochloride]
Rate of Effects (relative to MR) ([1]; I.V.): 11.7 | Rate of Effects (relative to MR) ([1]; P.O.): 1.85 | ED (20% blood pressure decrease) ([1]; iv): 0.3 mg/kg | ED (20% blood pressure decrease) ([1]; po): 6.4 mg/kg
